Measured values reported in US12187723B2 (BRISTOL-MYERS SQUIBB COMPANY, priority 2019, dated 2025).

Biological target: T1, human TLR8 (Homo sapiens, UniProt Q9NR97)
T1 construct: host or cells: HEK-Blue cells
T1 sequence (Q9NR97 27-1041): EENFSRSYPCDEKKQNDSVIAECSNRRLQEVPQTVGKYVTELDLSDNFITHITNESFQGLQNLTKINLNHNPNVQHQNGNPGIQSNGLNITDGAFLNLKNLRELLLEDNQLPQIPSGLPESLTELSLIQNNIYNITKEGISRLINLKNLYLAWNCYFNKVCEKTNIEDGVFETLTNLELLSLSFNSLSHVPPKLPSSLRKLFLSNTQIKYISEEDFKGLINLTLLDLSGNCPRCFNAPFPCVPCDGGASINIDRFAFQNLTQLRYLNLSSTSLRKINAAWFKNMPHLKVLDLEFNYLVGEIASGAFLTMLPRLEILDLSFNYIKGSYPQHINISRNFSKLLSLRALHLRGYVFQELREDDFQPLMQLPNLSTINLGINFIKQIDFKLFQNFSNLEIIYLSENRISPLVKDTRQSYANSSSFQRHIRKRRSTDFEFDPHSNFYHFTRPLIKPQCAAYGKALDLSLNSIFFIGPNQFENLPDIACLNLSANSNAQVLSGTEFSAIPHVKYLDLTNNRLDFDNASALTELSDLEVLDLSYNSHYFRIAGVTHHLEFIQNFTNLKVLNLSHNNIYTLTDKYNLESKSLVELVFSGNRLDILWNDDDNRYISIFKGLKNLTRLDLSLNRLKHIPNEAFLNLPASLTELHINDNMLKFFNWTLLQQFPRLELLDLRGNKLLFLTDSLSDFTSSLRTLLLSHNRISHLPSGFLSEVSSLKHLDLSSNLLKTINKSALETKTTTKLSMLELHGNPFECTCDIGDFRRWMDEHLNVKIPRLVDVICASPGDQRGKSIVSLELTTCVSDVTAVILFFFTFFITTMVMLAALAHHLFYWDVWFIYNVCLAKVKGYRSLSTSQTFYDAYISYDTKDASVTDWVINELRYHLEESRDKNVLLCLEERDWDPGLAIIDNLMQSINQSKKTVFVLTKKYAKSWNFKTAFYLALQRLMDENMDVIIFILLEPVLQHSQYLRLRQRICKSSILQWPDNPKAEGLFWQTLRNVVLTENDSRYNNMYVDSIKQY
Test: TLR8 inhibition reporter assay (HEK-Blue SEAP)
Assay type: cell-based
Conditions: HEK-Blue cells overexpressing human TLR8, R848 15.9 μM, 22 hour incubation
Method: TLR7/8/9 Inhibition Reporter Assays
HEK-Blue™-cells (Invivogen) overexpressing human TLR7, TLR8 or TLR9 receptors were used for screening inhibitors of these receptors using an inducible SEAP (secreted embryonic alkaline phosphatase) reporter gene under the control of the IFN-β minimal promoter fused to five NF-κB and AP-1-binding sites. Briefly, cells are seeded into Greiner 384 well plates (15000 cells per well for TLR7, 20,000 for TLR8 and 25,000 for TLR9) and then treated with test compounds in DMSO to yield a final dose response concentration range of 0.05 nM-50 μM. After a 30 minute compound pre-treatment at room temperature, the cells are then stimulated with a TLR7 ligand (gardiquimod at a final concentration of 7.5 μM), TLR8 ligand (R848 at a final concentration of 15.9 μM) or TLR9 ligand (ODN2006 at a final concentration of 5 nM) to activate NF-κB and AP-1 which induce the production of SEAP. After a 22 hour incubation at 37° C., 5% CO2, SEAP levels are determined with the addition of HEK-Blue™ Detection reagent (Invivogen), a cell culture medium that allows for detection of SEAP, according to manufacturer's specifications. The percent inhibition is determined as the % reduction in the HEK-Blue signal present in wells treated with agonist plus DMSO alone compared to wells treated with a known inhibitor.

Compound | IC50 [nM]
Cc1cc(-c2cc(C)c3ncnn3c2)cc2[nH]c(=O)n(C3CCN(CC(=O)N(C)C)CC3)c12 [Example 109, N,N-dimethyl-2-(4-(7-methyl-5-(8-methyl-[1,2,4]triazolo[1,5-a]pyridin-6-yl)-2-oxo-2,3-dihydro-1H-benzo[d]imidazol-1-yl)piperidin-1-yl)acetamide] | 541
CCN1CCC[C@@H](n2c(=O)[nH]c3cc(-c4cc(OC)c5ncnn5c4)c(C(F)(F)F)cc32)C1 [Example 110, (R)-1-(1-ethylpiperidin-3-yl)-5-(8-methoxy-[1,2,4]triazolo[1,5-a]pyridin-6-yl)-6-(trifluoromethyl)-1,3-dihydro-2H-benzo[d]imidazol-2-one] | 4.06
COc1cc(-c2cc3[nH]c(=O)n([C@@H]4CCCN(C(C)C)C4)c3cc2C(F)(F)F)cn2ncnc12 [Example 111, (R)-1-(1-isopropylpiperidin-3-yl)-5-(8-methoxy-[1,2,4]triazolo[1,5-a]pyridin-6-yl)-6-(trifluoromethyl)-1,3-dihydro-2H-benzo[d]imidazol-2-one] | 12.6
COc1cc(-c2cc3[nH]c(=O)n([C@@H]4CCCN(C5COC5)C4)c3cc2C(F)(F)F)cn2ncnc12 [Example 113, (R)-5-(8-methoxy-[1,2,4]triazolo[1,5-a]pyridin-6-yl)-1-(1-(oxetan-3-yl)piperidin-3-yl)-6-(trifluoromethyl)-1,3-dihydro-2H-benzo[d]imidazol-2-one] | 113
COc1cc(-c2cc3[nH]c(=O)n([C@@H]4CCCN(C)C4)c3cc2C(F)(F)F)cn2ncnc12 [Example 114, (R)-5-(8-methoxy-[1,2,4]triazolo[1,5-a]pyridin-6-yl)-1-(1-methylpiperidin-3-yl)-6-(trifluoromethyl)-1,3-dihydro-2H-benzo[d]imidazol-2-one] | 0.29
CCCN1CCC[C@@H](n2c(=O)[nH]c3cc(-c4cc(OC)c5ncnn5c4)c(C(F)(F)F)cc32)C1 [Example 115, (R)-5-(8-methoxy-[1,2,4]triazolo[1,5-a]pyridin-6-yl)-1-(1-propylpiperidin-3-yl)-6-(trifluoromethyl)-1,3-dihydro-2H-benzo[d]imidazol-2-one] | 14.4
CCC(CC)CN1CCC[C@@H](n2c(=O)[nH]c3cc(-c4cc(OC)c5ncnn5c4)c(C(F)(F)F)cc32)C1 [Example 117, (R)-1-(1-(2-ethylbutyl)piperidin-3-yl)-5-(8-methoxy-[1,2,4]triazolo[1,5-a]pyridin-6-yl)-6-(trifluoromethyl)-1,3-dihydro-2H-benzo[d]imidazol-2-one] | 33.3
COc1cc(-c2cc3[nH]c(=O)n([C@H]4CCCN(C)C4)c3cc2C(C)C)cn2ncnc12 [Example 119, (S)-6-isopropyl-5-(8-methoxy-[1,2,4]triazolo[1,5-a]pyridin-6-yl)-1-(1-methylpiperidin-3-yl)-1,3-dihydro-2H-benzo[d]imidazol-2-one] | 2.37
COc1cc(-c2cc3[nH]c(=O)n([C@H]4CCCN(C(C)C)C4)c3cc2C(C)C)cn2ncnc12 [Example 120, (S)-6-isopropyl-1-(1-isopropylpiperidin-3-yl)-5-(8-methoxy-[1,2,4]triazolo[1,5-a]pyridin-6-yl)-1,3-dihydro-2H-benzo[d]imidazol-2-one] | 0.8
COc1cc(-c2cc3[nH]c(=O)n([C@H]4CCCN(C5CCC5)C4)c3cc2C(C)C)cn2ncnc12 [Example 122, (S)-1-(1-cyclobutylpiperidin-3-yl)-6-isopropyl-5-(8-methoxy-[1,2,4]triazolo[1,5-a]pyridin-6-yl)-1,3-dihydro-2H-benzo[d]imidazol-2-one] | 1.5
COc1cc(-c2cc3[nH]c(=O)n([C@H]4CCCN(C5COC5)C4)c3cc2C(C)C)cn2ncnc12 [Example 123, (S)-6-isopropyl-5-(8-methoxy-[1,2,4]triazolo[1,5-a]pyridin-6-yl)-1-(1-(oxetan-3-yl)piperidin-3-yl)-1,3-dihydro-2H-benzo[d]imidazol-2-one] | 5.56
COc1cc(-c2cc3[nH]c(=O)n([C@H]4CCCN(C5CCOCC5)C4)c3cc2C(C)C)cn2ncnc12 [Example 124, (S)-6-isopropyl-5-(8-methoxy-[1,2,4]triazolo[1,5-a]pyridin-6-yl)-1-(1-(tetrahydro-2H-pyran-4-yl)piperidin-3-yl)-1,3-dihydro-2H-benzo[d]imidazol-2-one] | 4.33
COc1cc(-c2cc3[nH]c(=O)n([C@H]4CCCN(CC5CCOCC5)C4)c3cc2C(C)C)cn2ncnc12 [Example 125, (S)-6-isopropyl-5-(8-methoxy-[1,2,4]triazolo[1,5-a]pyridin-6-yl)-1-(1-((tetrahydro-2H-pyran-4-yl)methyl)piperidin-3-yl)-1,3-dihydro-2H-benzo[d]imidazol-2-one] | 2.37
COc1cc(-c2cc3[nH]c(=O)n([C@H]4CCCN(CC(C)C)C4)c3cc2C(C)C)cn2ncnc12 [Example 129, (S)-1-(1-isobutylpiperidin-3-yl)-6-isopropyl-5-(8-methoxy-[1,2,4]triazolo[1,5-a]pyridin-6-yl)-1,3-dihydro-2H-benzo[d]imidazol-2-one] | 4

Continued by falling IC50, values first:

IC50 [nM] | Compound
57.8 | COc1cc(-c2cc3[nH]c(=O)n([C@@H]4CCCN(CC(C)(C)C)C4)c3cc2C(F)(F)F)cn2ncnc12 [Example 116, (R)-5-(8-methoxy-[1,2,4]triazolo[1,5-a]pyridin-6-yl)-1-(1-neopentylpiperidin-3-yl)-6-(trifluoromethyl)-1,3-dihydro-2H-benzo[d]imidazol-2-one]
22.7 | COCCN1CCC[C@@H](n2c(=O)[nH]c3cc(-c4cc(OC)c5ncnn5c4)c(C(F)(F)F)cc32)C1 [Example 118, (R)-5-(8-methoxy-[1,2,4]triazolo[1,5-a]pyridin-6-yl)-1-(1-(2-methoxyethyl)piperidin-3-yl)-6-(trifluoromethyl)-1,3-dihydro-2H-benzo[d]imidazol-2-one]
20.3 | COc1cc(-c2cc3[nH]c(=O)n([C@@H]4CCCN(CC5CCOCC5)C4)c3cc2C(F)(F)F)cn2ncnc12 [Example 112, (R)-5-(8-methoxy-[1,2,4]triazolo[1,5-a]pyridin-6-yl)-1-(1-((tetrahydro-2H-pyran-4-yl)methyl)piperidin-3-yl)-6-(trifluoromethyl)-1,3-dihydro-2H-benzo[d]imidazol-2-one]
8.52 | CCC(CC)CN1CCC[C@H](n2c(=O)[nH]c3cc(-c4cc(OC)c5ncnn5c4)c(C(C)C)cc32)C1 [Example 130, (S)-1-(1-(2-ethylbutyl)piperidin-3-yl)-6-isopropyl-5-(8-methoxy-[1,2,4]triazolo[1,5-a]pyridin-6-yl)-1,3-dihydro-2H-benzo[d]imidazol-2-one]
3.64 | COc1cc(-c2cc3[nH]c(=O)n([C@H]4CCCN(CC5CCOC5)C4)c3cc2C(C)C)cn2ncnc12 (stereo partly drawn) [Example 126, 6-isopropyl-5-(8-methoxy-[1,2,4]triazolo[1,5-a]pyridin-6-yl)-1-((3S)-1-((tetrahydrofuran-3-yl)methyl)piperidin-3-yl)-1,3-dihydro-2H-benzo[d]imidazol-2-one]
2.8 | COc1cc(-c2cc3[nH]c(=O)n([C@H]4CCCN(CC5CC5)C4)c3cc2C(C)C)cn2ncnc12 [Example 127, (S)-1-(1-(cyclopropylmethyl)piperidin-3-yl)-6-isopropyl-5-(8-methoxy-[1,2,4]triazolo[1,5-a]pyridin-6-yl)-1,3-dihydro-2H-benzo[d]imidazol-2-one]
1.82 | CCCN1CCC[C@H](n2c(=O)[nH]c3cc(-c4cc(OC)c5ncnn5c4)c(C(C)C)cc32)C1 [Example 121, (S)-6-isopropyl-5-(8-methoxy-[1,2,4]triazolo[1,5-a]pyridin-6-yl)-1-(1-propylpiperidin-3-yl)-1,3-dihydro-2H-benzo[d]imidazol-2-one]
